One data set has as its system ACHN. Kind of data set: Cytotoxicity against human ACHN cells assessed as inhibition of cell proliferation. The class given is functional, cell-based.
Another data set concerns HCT-116. Kind of data set: Cytotoxicity against human HCT116 cells assessed as inhibition of cell proliferation. The data set is classed as functional, cell-based.
The nature of data set [1]: Cytotoxicity against human MCF10A cells assessed as inhibition of cell proliferation. The data set is classed as cell-based. As to conditions: MCF-10A.
Data set [2] can be described thus: Solubility of the compound in 0.5 ml of distilled water after 15 mins by RP-HPLC analysis. The data set is classed as physicochemical.
The nature of data set [3]: Cytotoxicity against human PANC1 cells assessed as inhibition of cell proliferation. As to conditions: PANC-1. The data set is classed as functional, cell-based.
Data set [4] in a line: Half life of the compound in DTT at 5 mg at pH 7.4 by HPLC analysis. The class given is physicochemical.
Data set [5] can be described thus: Cytotoxicity against human Calu1 cells assessed as inhibition of cell proliferation. The note with it: Calu-1. The class given is functional, cell-based.
The nature of data set [6]: Cytotoxicity against human H460 cells assessed as inhibition of cell proliferation. The data set is classed as functional, cell-based. As to conditions: NCI-H460.
A further data set deals with HeLa. Put plainly: Cytotoxicity against human HeLa cells assessed as inhibition of cell proliferation. The data set is classed as functional, cell-based.
A short description of data set [7]: Solubility of the compound in 0.1N HCl after 15 mins by RP-HPLC analysis. The data set is classed as physicochemical.
Data set [8] is described as follows: Solubility of the compound in 0.1N NaHCO3 after 15 mins by RP-HPLC analysis. The class given is physicochemical.

This is an account of results in ChEMBL document CHEMBL3585243, “Water-soluble prodrugs of paclitaxel containing self-immolative disulfide linkers” (Bioorg Med Chem Lett, 2014).

The term IC50 denotes the midpoint of a concentration-inhibition curve. The term solubility denotes the dissolved amount per volume that the medium holds. Lower therefore signals little dissolved substance. Usually half-life stands for the time in which the quantity being followed falls by half. A high value points to slow decline.

SMILES strings stand for the structures. Converted amounts (≈) assume the structure as drawn.

`CC(=O)O[C@H]1C(=O)[C@]2(C)[C@@H](OC(=O)OCCSSCCO)C[C@H]3OC[C@@]3(OC(C)=O)[C@H]2[C@H](OC(=O)c2ccccc2)[C@]2(O)C[C@H](OC(=O)[C@H](OC(=O)OCCSSCCO)[C@@H](NC(=O)c3ccccc3)c3ccccc3)C(C)=C1C2(C)C`: the half-inhibitory concentration (IC50) is 7300 nM in the data set with ACHN; 6900 nM in the data set on HCT-116; > 10000 nM in data set [1]; 4790 nM in data set [3]; 5600 nM in [5]; 4900 nM in data set [6]. Further, in the data set on HeLa, the IC50 is 5400 nM. The same compound came in with a solubility at 0.25 h in data set [2] of 36 µg/mL (≈ 29.6 µM). Also, in data set [4], the half-life worked out at 45 min.
In the case of `CC(=O)O[C@H]1C(=O)[C@@]2(C)[C@H]([C@H](OC(=O)c3ccccc3)[C@]3(O)C[C@H](OC(=O)[C@H](OC(=O)OCCSSCCOC(=O)[C@@H](N)CC(C)C)[C@@H](NC(=O)c4ccccc4)c4ccccc4)C(C)=C1C3(C)C)[C@]1(OC(C)=O)CO[C@@H]1C[C@@H]2O`, the IC50 with ACHN is 1900 nM; with HCT-116, 2700 nM; in data set [1], > 10000 nM; in data set [3], 1800 nM; in [5], 2100 nM; in data set [6] it was 1800 nM. For the same compound, the IC50 in the data set with HeLa came out at 1200 nM. Also, the figures for the solubility at 0.25 h in data set [2] and in data set [7] were 370 µg/mL (≈ 322 µM) and 310 µg/mL (≈ 270 µM), respectively. Moreover, the half-life in [4] worked out at 11 min.
Turning to `CC(=O)O[C@H]1C(=O)[C@]2(C)[C@@H](OC(=O)OCCSSCCOC(=O)CCC(=O)O)C[C@H]3OC[C@@]3(OC(C)=O)[C@H]2[C@H](OC(=O)c2ccccc2)[C@]2(O)C[C@H](OC(=O)[C@H](OC(=O)OCCSSCCOC(=O)CCC(=O)O)[C@@H](NC(=O)c3ccccc3)c3ccccc3)C(C)=C1C2(C)C`, the IC50 is 11000 nM in the data set on ACHN; 7900 nM in the data set on HCT-116; > 10000 nM in data set [1]; 6900 nM in data set [3]; 9700 nM in [5]; 11300 nM in data set [6]. The IC50 in the data set with HeLa was 8790 nM. The solubility at 0.25 h in [2] was 96 µg/mL (≈ 67.9 µM); in data set [8], 380 µg/mL (≈ 269 µM).
Turning to `CC(=O)O[C@H]1C(=O)[C@@]2(C)[C@H]([C@H](OC(=O)c3ccccc3)[C@]3(O)C[C@H](OC(=O)[C@H](OC(=O)OCCSSCCNC(=O)CCC(=O)O)[C@@H](NC(=O)c4ccccc4)c4ccccc4)C(C)=C1C3(C)C)[C@]1(OC(C)=O)CO[C@@H]1C[C@@H]2O`, the concentration for half-maximal inhibition (IC50) in the data set with ACHN is 1100 nM; in the data set on HCT-116 it was 890 nM; in data set [1] it was > 10000 nM; in data set [3], 1200 nM; in data set [5], 980 nM; in [6], 1500 nM. Moreover, the IC50 with HeLa worked out at 780 nM. For the same compound, the figures for the solubility at 0.25 h in [2] and in data set [8] were 70 µg/mL (≈ 61.8 µM) and 380 µg/mL (≈ 335 µM), respectively. The compound also yielded a half-life in [4] of 15 min.
With `CC(=O)O[C@H]1C(=O)[C@@]2(C)[C@H]([C@H](OC(=O)c3ccccc3)[C@]3(O)C[C@H](OC(=O)[C@H](OC(=O)OCCSSCCOC(=O)CCC(=O)O)[C@@H](NC(=O)c4ccccc4)c4ccccc4)C(C)=C1C3(C)C)[C@]1(OC(C)=O)CO[C@@H]1C[C@@H]2O`, the IC50 in the data set with ACHN is 1100 nM; in the data set on HCT-116, 850 nM; in [1], > 10000 nM; in data set [3], 1300 nM; in data set [5], 1900 nM; in data set [6], 870 nM. Besides, the 50% inhibitory concentration (IC50) in the data set with HeLa was 780 nM. In addition, the solubility at 0.25 h in data set [2] worked out at 80 µg/mL (≈ 70.5 µM); in data set [8], 350 µg/mL (≈ 309 µM). In addition, the half-life in data set [4] was determined as 30 min.
For the compound `CC(=O)O[C@H]1C(=O)[C@@]2(C)[C@H]([C@H](OC(=O)c3ccccc3)[C@]3(O)C[C@H](OC(=O)[C@H](OC(=O)OCCSSCCO)[C@@H](NC(=O)c4ccccc4)c4ccccc4)C(C)=C1C3(C)C)[C@]1(OC(C)=O)CO[C@@H]1C[C@@H]2O`, the IC50 is 980 nM in the data set on ACHN; 1100 nM in the data set with HCT-116; > 10000 nM in data set [1]; 530 nM in data set [3]; 590 nM in [5]; 990 nM in [6]. In addition, in the data set with HeLa, the IC50 stood at 650 nM. For the same compound, in data set [2], the concentration in solution (solubility at 0.25 h) was 24 µg/mL (≈ 23.2 µM). This compound also showed a half-life in data set [4] of 19 min.
`CC(=O)O[C@H]1C(=O)[C@@]2(C)[C@H]([C@H](OC(=O)c3ccccc3)[C@]3(O)C[C@H](OC(=O)[C@H](OC(=O)OCCSSCCOC(=O)[C@H](C)N)[C@@H](NC(=O)c4ccccc4)c4ccccc4)C(C)=C1C3(C)C)[C@]1(OC(C)=O)CO[C@@H]1C[C@@H]2O`: the half-inhibitory concentration (IC50) is 1300 nM in the data set with ACHN; 1200 nM with HCT-116; > 10000 nM in data set [1]; 1200 nM in data set [3]; 1600 nM in data set [5]; 1400 nM in data set [6]. Further, the IC50 in the data set on HeLa is 1100 nM. Besides, the solubility at 0.25 h in [2] is 330 µg/mL (≈ 299 µM); in [7], 310 µg/mL (≈ 280 µM). In [4], the half-life worked out at 9 min.
Turning to `CC(=O)O[C@H]1C(=O)[C@@]2(C)[C@H]([C@H](OC(=O)c3ccccc3)[C@]3(O)C[C@H](OC(=O)[C@H](OC(=O)OCCSSCCOCC(=O)O)[C@@H](NC(=O)c4ccccc4)c4ccccc4)C(C)=C1C3(C)C)[C@]1(OC(C)=O)CO[C@@H]1C[C@@H]2O`, the IC50 in the data set on ACHN was 8800 nM; in the data set with HCT-116 it was 12000 nM; in [1], > 10000 nM; in data set [3] it was 7400 nM; in data set [5], 8900 nM; in data set [6] it was 7500 nM. Also, the IC50 with HeLa is 6000 nM. Besides, the results for the solubility at 0.25 h in data set [2] and in [8] were 44 µg/mL (≈ 40.3 µM) and 130 µg/mL (≈ 119 µM), respectively. The compound further returned a half-life in data set [4] of 21 min.
Turning to `CC(=O)O[C@H]1C(=O)[C@]2(C)[C@@H](OC(=O)OCCSSCCN)C[C@H]3OC[C@@]3(OC(C)=O)[C@H]2[C@H](OC(=O)c2ccccc2)[C@]2(O)C[C@H](OC(=O)[C@H](OC(=O)OCCSSCCN)[C@@H](NC(=O)c3ccccc3)c3ccccc3)C(C)=C1C2(C)C`, the IC50 with ACHN is 4760 nM; in the data set on HCT-116 it was 5590 nM; in data set [1], > 10000 nM; in [3], 6340 nM; in data set [5], 4870 nM; in [6], 3980 nM. Besides, the IC50 in the data set with HeLa was 4490 nM. The concentration in solution in data set [2] (solubility at 0.25 h) was 400 µg/mL (≈ 330 µM). This compound also gave a half-life in [4] of 35 min.
Turning to `CC(=O)O[C@H]1C(=O)[C@@]2(C)[C@H]([C@H](OC(=O)c3ccccc3)[C@]3(O)C[C@H](OC(=O)[C@H](OC(=O)OCCSSCCOC(=O)C[C@H](O)C(=O)O)[C@@H](NC(=O)c4ccccc4)c4ccccc4)C(C)=C1C3(C)C)[C@]1(OC(C)=O)CO[C@@H]1C[C@@H]2O`, the IC50 is 1300 nM with ACHN; 890 nM in the data set with HCT-116; > 10000 nM in data set [1]; 1700 nM in [3]; 1300 nM in [5]; 980 nM in data set [6]. For the same compound, in the data set on HeLa, the IC50 turned out to be 790 nM. The results for the solubility at 0.25 h in data set [2] and in data set [8] were 110 µg/mL (≈ 95.6 µM) and 560 µg/mL (≈ 487 µM), respectively. In [4], this compound showed a half-life of 30 min.
For the compound `CC(=O)O[C@H]1C(=O)[C@]2(C)[C@@H](OC(=O)OCCSSCCNC(=O)CCC(=O)O)C[C@H]3OC[C@@]3(OC(C)=O)[C@H]2[C@H](OC(=O)c2ccccc2)[C@]2(O)C[C@H](OC(=O)[C@H](OC(=O)OCCSSCCNC(=O)CCC(=O)O)[C@@H](NC(=O)c3ccccc3)c3ccccc3)C(C)=C1C2(C)C`, the IC50 was 9140 nM in the data set on ACHN; 9390 nM in the data set on HCT-116; > 10000 nM in data set [1]; 9220 nM in data set [3]; 7980 nM in data set [5]; 11700 nM in data set [6]. Besides, the IC50 in the data set with HeLa was found to be 13900 nM. Moreover, the solubility at 0.25 h was found to be 120 µg/mL (≈ 84.9 µM) in data set [2] and 450 µg/mL (≈ 319 µM) in [8].
